Inhibition data for eleven compounds are collected here from patent US10481149B2.

The target in data set [1] is BSEP (Macaca fascicularis, UniProt D2CFL3). Put plainly: in vitro. The conditions noted are these: monkey, hepatocytes in suspension, probe taurocholate.
For data set [2], the target named is BSEP (Homo sapiens, UniProt O95342). The experiment in a line: in vitro.
The target of data set [3] is T1, BSEP (Rattus norvegicus, UniProt O70127).
T1 sequence (O70127 1-1321): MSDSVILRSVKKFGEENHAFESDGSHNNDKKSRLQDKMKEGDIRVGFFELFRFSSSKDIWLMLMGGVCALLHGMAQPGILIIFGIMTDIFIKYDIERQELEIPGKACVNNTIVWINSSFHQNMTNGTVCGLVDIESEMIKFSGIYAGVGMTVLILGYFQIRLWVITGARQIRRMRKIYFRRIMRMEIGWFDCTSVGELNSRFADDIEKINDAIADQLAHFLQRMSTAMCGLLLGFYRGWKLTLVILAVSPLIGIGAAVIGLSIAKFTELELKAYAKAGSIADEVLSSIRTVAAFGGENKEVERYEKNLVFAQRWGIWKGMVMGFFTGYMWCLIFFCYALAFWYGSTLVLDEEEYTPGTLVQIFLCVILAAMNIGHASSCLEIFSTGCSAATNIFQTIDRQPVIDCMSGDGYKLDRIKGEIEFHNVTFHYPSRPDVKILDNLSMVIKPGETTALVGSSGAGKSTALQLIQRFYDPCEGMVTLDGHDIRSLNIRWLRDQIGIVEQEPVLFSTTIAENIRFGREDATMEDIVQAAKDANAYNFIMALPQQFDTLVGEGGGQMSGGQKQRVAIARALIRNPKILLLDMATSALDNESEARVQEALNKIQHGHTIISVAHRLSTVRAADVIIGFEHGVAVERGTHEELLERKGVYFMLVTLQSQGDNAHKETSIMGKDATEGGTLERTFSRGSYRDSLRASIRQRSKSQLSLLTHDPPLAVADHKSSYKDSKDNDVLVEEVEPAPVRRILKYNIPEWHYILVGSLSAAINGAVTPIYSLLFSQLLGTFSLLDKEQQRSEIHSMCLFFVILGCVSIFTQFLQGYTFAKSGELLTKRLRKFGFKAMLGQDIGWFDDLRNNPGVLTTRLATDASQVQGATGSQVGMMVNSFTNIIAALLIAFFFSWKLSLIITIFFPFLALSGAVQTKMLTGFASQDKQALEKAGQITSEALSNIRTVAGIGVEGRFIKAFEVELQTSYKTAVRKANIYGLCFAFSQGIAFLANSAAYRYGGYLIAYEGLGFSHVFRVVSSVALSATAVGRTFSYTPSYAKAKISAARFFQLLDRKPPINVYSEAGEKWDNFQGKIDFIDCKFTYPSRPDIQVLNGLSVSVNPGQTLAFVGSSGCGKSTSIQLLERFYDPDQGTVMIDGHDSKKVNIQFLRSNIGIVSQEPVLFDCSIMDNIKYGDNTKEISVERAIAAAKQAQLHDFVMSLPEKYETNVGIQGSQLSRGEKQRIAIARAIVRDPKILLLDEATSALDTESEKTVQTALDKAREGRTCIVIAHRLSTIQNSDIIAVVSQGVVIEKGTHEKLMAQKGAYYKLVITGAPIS
Put plainly: Inhibition of BSEP activity (transport of glycocholate) in rat hepatocytes.

Data set [4] addresses T2, BSEP (Canis lupus familiaris, UniProt B8K1W2).
T2 sequence (B8K1W2 1-1325): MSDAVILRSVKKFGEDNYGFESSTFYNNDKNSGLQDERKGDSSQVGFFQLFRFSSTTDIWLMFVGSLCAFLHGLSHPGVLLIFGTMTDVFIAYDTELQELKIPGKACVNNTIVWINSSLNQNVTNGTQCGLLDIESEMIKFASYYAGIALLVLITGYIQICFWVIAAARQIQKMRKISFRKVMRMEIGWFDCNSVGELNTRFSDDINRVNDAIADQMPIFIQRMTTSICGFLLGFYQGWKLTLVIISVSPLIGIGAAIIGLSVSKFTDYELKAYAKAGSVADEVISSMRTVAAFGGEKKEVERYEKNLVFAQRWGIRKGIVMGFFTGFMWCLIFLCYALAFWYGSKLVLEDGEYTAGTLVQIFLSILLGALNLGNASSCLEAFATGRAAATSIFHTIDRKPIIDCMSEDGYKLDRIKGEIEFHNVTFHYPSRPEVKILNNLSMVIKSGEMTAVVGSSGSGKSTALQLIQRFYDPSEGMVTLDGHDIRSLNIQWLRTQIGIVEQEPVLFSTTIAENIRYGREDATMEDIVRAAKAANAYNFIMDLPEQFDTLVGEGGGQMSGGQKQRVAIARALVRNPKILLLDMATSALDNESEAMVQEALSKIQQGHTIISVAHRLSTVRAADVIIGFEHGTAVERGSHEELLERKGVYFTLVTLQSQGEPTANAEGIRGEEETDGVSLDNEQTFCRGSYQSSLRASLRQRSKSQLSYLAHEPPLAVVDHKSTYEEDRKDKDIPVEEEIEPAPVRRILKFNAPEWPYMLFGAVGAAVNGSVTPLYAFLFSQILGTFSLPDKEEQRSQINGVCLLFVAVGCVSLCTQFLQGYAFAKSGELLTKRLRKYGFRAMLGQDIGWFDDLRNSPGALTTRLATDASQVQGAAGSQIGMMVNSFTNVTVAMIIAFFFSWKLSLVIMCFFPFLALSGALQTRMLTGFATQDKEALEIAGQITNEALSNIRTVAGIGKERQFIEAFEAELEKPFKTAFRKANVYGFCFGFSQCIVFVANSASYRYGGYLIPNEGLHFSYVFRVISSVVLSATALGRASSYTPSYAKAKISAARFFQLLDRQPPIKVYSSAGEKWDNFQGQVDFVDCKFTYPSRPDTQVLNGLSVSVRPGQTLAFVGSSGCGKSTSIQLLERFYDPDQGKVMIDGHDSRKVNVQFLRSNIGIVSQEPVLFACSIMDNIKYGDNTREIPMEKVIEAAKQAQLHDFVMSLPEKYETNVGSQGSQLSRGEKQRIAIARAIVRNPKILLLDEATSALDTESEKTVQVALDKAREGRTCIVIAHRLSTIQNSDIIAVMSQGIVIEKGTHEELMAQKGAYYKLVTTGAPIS
Put plainly: Inhibition of BSEP activity (transport of taurocholate) in dog hepatocytes.

Where [5] appears, read: hepatocytes in suspension, probe glycocholate.
Setting [6] is: hepatocytes in suspension, probe taurocholate.

Like-named read-outs stand apart in the source and are kept apart here. Some results are limits rather than exact numbers.

BSEP (Homo sapiens, UniProt O95342), sequence (O95342 whole entry): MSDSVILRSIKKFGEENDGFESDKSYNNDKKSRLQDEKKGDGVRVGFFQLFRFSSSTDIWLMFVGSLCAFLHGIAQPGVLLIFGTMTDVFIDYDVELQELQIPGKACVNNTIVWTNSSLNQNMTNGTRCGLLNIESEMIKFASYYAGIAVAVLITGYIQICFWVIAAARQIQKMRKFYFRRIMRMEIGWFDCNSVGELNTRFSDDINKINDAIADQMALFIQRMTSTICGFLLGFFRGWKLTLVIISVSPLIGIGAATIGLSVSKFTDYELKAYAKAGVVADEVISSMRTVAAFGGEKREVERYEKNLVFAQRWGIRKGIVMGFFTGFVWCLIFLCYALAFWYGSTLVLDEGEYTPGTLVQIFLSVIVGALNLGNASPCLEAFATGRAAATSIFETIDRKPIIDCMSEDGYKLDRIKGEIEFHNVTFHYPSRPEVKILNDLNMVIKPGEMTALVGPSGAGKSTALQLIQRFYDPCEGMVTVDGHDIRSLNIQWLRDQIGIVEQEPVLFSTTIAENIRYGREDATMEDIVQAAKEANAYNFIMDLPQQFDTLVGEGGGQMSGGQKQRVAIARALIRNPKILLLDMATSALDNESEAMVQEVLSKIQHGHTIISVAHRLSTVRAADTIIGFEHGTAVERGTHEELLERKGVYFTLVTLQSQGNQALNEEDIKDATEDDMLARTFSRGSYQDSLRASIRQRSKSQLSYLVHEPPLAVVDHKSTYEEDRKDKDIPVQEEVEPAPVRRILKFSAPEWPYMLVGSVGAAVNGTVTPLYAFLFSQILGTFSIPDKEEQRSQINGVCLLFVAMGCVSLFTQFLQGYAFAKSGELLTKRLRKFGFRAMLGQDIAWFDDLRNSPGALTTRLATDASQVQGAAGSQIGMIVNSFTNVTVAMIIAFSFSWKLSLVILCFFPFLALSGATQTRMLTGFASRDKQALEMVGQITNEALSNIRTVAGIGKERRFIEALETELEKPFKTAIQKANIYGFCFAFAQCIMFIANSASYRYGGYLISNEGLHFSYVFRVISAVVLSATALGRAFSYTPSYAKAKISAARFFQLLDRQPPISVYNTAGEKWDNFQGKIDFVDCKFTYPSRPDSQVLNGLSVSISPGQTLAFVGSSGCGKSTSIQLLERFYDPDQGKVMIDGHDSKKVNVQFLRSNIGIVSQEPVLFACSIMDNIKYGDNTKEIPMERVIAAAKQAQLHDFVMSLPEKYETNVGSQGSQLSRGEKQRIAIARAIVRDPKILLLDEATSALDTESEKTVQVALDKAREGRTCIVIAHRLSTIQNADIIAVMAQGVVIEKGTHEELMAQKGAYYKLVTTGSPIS
BSEP (Macaca fascicularis, UniProt D2CFL3), sequence (D2CFL3 1-1323): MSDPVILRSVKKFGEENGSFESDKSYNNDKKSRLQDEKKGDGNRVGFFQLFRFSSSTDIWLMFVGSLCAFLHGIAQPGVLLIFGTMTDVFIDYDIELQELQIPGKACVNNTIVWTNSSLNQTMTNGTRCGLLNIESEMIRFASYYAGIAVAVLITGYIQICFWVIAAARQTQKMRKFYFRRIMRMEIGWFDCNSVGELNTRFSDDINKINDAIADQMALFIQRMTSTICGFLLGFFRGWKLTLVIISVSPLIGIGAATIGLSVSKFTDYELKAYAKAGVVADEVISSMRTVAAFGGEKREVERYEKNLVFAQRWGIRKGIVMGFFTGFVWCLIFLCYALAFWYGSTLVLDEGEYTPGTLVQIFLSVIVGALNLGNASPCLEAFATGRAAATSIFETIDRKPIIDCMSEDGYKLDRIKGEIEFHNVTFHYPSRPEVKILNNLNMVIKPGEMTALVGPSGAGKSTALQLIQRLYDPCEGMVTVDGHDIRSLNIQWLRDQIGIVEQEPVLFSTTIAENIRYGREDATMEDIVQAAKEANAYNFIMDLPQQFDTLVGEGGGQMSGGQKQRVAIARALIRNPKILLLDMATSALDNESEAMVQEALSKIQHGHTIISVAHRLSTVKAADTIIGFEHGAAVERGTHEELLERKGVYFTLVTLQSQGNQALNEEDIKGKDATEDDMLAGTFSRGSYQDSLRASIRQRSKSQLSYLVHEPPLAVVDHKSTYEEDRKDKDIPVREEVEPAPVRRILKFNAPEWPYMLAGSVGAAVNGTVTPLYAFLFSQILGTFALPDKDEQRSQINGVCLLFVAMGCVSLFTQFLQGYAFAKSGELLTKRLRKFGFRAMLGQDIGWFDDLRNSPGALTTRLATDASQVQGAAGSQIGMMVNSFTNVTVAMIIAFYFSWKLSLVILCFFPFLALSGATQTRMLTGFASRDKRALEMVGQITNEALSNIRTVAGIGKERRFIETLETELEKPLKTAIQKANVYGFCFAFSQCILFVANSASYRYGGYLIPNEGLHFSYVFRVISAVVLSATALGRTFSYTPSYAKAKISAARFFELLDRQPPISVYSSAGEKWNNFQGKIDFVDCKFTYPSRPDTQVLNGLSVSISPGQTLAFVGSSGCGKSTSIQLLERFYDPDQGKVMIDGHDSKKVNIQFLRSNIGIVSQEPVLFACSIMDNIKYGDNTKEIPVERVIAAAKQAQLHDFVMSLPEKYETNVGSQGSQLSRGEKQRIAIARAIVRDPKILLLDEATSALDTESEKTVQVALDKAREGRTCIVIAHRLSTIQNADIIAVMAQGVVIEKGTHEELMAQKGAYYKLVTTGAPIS

`COC(=O)N[C@H](C(=O)N[C@@H](Cc1ccccc1)[C@@H](O)CN(Cc1ccc(-c2ccccn2)cc1)NC(=O)[C@@H](NC(=O)OC)C(C)(C)C)C(C)(C)C` [Atazanavir, atazanavir]: the inhibition at 1 h, 1 μM was less than 50% against BSEP [1], less than 50% against BSEP [2] (setting [5]), greater than 50% against BSEP [3] (setting [5]) and less than 50% at BSEP [4] (setting [6]). In addition, the inhibition at 1 h, 10 μM on BSEP [1], against BSEP [2] (setting [5]), on BSEP [3] (setting [5]) and against BSEP [4] (setting [6]) was greater than 50% throughout.

With `C[C@@H](Oc1cc(-c2cnn(C3CCNCC3)c2)cnc1N)c1c(Cl)ccc(F)c1Cl` [Crizotinib, crizotinib], the inhibition at 1 h, 1 μM against BSEP [1], against BSEP [2] (setting [5]), on BSEP [3] (setting [5]) and against BSEP [4] (setting [6]) was less than 50% each time. The inhibition at 1 h, 10 μM against BSEP [1] was less than 50%; against BSEP [2] (setting [5]), greater than 50%; at BSEP [3] (setting [5]) it was greater than 50%; against BSEP [4] (setting [6]) it was greater than 50%.

On to `OC(Cn1cncn1)(Cn1cncn1)c1ccc(F)cc1F` [Fluconazole, fluconazole], for which the inhibition at 1 h, 1 μM at BSEP [1], at BSEP [2] (setting [5]), on BSEP [3] (setting [5]) and on BSEP [4] (setting [6]) was less than 50% each time. The inhibition at 1 h, 10 μM at BSEP [1], at BSEP [2] (setting [5]), against BSEP [3] (setting [5]) and on BSEP [4] (setting [6]) was less than 50% each time.

Consider `CC(=O)N1CCN(c2ccc(OCC3COC(Cn4ccnc4)(c4ccc(Cl)cc4Cl)O3)cc2)CC1` (stereo not shown) [Ketoconazole, ketoconazole], for which the inhibition at 1 h, 1 μM on BSEP [1], against BSEP [2] (setting [5]), at BSEP [3] (setting [5]) and on BSEP [4] (setting [6]) was less than 50% in each case. Moreover, the inhibition at 1 h, 10 μM against BSEP [1] was greater than 50%; against BSEP [2] (setting [5]), less than 50%; against BSEP [3] (setting [5]), greater than 50%; against BSEP [4] (setting [6]), less than 50%.

`Cc1c(O)cccc1C(=O)N[C@@H](CSc1ccccc1)[C@H](O)CN1C[C@H]2CCCC[C@H]2C[C@H]1C(=O)NC(C)(C)C` [Nelfinavir, nelfinavir]: the inhibition at 1 h, 1 μM on BSEP [1], against BSEP [2] (setting [5]), at BSEP [3] (setting [5]) and on BSEP [4] (setting [6]) was less than 50% in each case. Further, the inhibition at 1 h, 10 μM against BSEP [1], at BSEP [2] (setting [5]), at BSEP [3] (setting [5]) and against BSEP [4] (setting [6]) was greater than 50% in each case.

For `CC(C)NCC(O)COc1cccc2ccccc12` (stereo not shown) [Propranolol, propranolol], the inhibition at 1 h, 1 μM at BSEP [1], on BSEP [2] (setting [5]), against BSEP [3] (setting [5]) and at BSEP [4] (setting [6]) was less than 50% throughout. Moreover, the inhibition at 1 h, 10 μM against BSEP [1], on BSEP [2] (setting [5]), against BSEP [3] (setting [5]) and on BSEP [4] (setting [6]) was less than 50% in each case.

`O=c1c(O)c(-c2ccc(O)c(O)c2)oc2cc(O)cc(O)c12` [Quercetin, quercetin]: the inhibition at 1 h, 1 μM on BSEP [1], against BSEP [2] (setting [5]), against BSEP [3] (setting [5]) and on BSEP [4] (setting [6]) was less than 50% each time. For the same compound, the inhibition at 1 h, 10 μM at BSEP [1] is less than 50%; on BSEP [2] (setting [5]) it was less than 50%; on BSEP [3] (setting [5]), less than 50%; against BSEP [4] (setting [6]), greater than 50%.

As for `C=C[C@H]1C[N@@]2CC[C@H]1C[C@@H]2[C@@H](O)c1ccnc2ccc(OC)cc12` [Quinidine, quinidine], the inhibition at 1 h, 1 μM at BSEP [1], against BSEP [2] (setting [5]), against BSEP [3] (setting [5]) and against BSEP [4] (setting [6]) was less than 50% in each case. For the same compound, the inhibition at 1 h, 10 μM at BSEP [1], against BSEP [2] (setting [5]), against BSEP [3] (setting [5]) and against BSEP [4] (setting [6]) was less than 50% each time.

`S=P(N1CC1)(N1CC1)N1CC1` [Thiotepa, thiotepa]: the inhibition at 1 h, 1 μM at BSEP [1], at BSEP [2], at BSEP [3] and on BSEP [4] was less than 50% in each case. Besides, the inhibition at 1 h, 10 μM at BSEP [1], against BSEP [2], against BSEP [3] and at BSEP [4] was less than 50% each time.

In the case of `Cc1c(C)c2c(c(C)c1O)CCC(C)(COc1ccc(CC3SC(=O)NC3=O)cc1)O2` (stereo not shown) [Troglitazone, troglitazone], the inhibition at 1 h, 1 μM is less than 50% against BSEP [1], greater than 50% on BSEP [2] (setting [5]), greater than 50% against BSEP [3] (setting [5]) and less than 50% at BSEP [4] (setting [6]). For the same compound, the inhibition at 1 h, 10 μM at BSEP [1], against BSEP [2] (setting [5]), on BSEP [3] (setting [5]) and on BSEP [4] (setting [6]) was greater than 50% in each case.

Take `CC[C@]1(O)C[C@@H]2CN(CCc3c([nH]c4ccccc34)[C@@](C(=O)OC)(c3cc4c(cc3OC)N(C)[C@H]3[C@@](O)(C(=O)OC)[C@H](OC(C)=O)[C@]5(CC)C=CCN6CC[C@]43[C@@H]65)C2)C1` [Vinblastine, vinblastine]: the inhibition at 1 h, 1 μM at BSEP [1], against BSEP [2] (setting [5]), against BSEP [3] (setting [5]) and against BSEP [4] (setting [6]) was less than 50% in each case. The inhibition at 1 h, 10 μM was less than 50% on BSEP [1], greater than 50% at BSEP [2] (setting [5]), greater than 50% on BSEP [3] (setting [5]) and less than 50% against BSEP [4] (setting [6]).
